From patent publication US8008000B2, “Viral variants detection and application” (priority 2003, dated 2011)
Entries after “also recorded” stand apart in the source; their conditions may differ. Where a name gives a salt, the structure may show the parent alone.

Legend:
HBV [1] = assay: Response of Patient E (chronic HBV infection) to treatment; format: in vivo, Hepatitis B virus; settings: previously treated with lamivudine
Description: Reference herein to “decreased” or “reduced” in relation to sensitivity to ADV and/or LMV and/or FTC and/or TFV includes and encompasses a complete or substantial resistance to the nucleoside or nucleotide analog or other anti-HBV agents as well as partial resistance and includes a replication rate or replication efficiency which is more than a wild-type in the presence of a nucleoside or nucleotide analog or other anti-HBV agents. In one aspects this is conveniently measured by an increase in viral load during treatment, or alternatively, there is no substantial decrease in HBV DNA viral load from pretreatment HBV DNA levels during treatment (i.e., non-response to treatment).

HBV [2] = assay: HBV viral load in Patient A during ADV therapy; format: in vivo, Hepatitis B virus; settings: Patient A on ADV treatment
Description: Patient A: During ADV treatment, unique HBV mutations were detected by sequencing (Table 4). This includes the unique mutation at rtT38K, and rtA181V. A number of other changes were also detected in the polymerase rtR55H and in the overlapping envelope gene (Table 4, FIGS. 4, 5 and 6). The changes in the HBsAg include sQ30K, sE44G, sA47T, sI126T, sA159V and sL173F. These unique changes were compared to reference sequences from each of the seven genotypes A-G as well as a consensus sequence from pretreatment samples to determine unique changes
Hepatitis B surface antigen (HBsAg), hepatitis B e antigen (HBeAg), anti-HBe and hepatitis B core antigen (HBcAg) specific IgG and IgM were measured using commercially available immunoassays (Abbott Laboratories, North Chicago, Ill., USA). Hepatitis B viral DNA levels were measured using a capture hybridization assay according to the manufacturer's directions (Digene Hybrid Capture II, Digene Diagnostics Inc., Beltsville, Md.). The manufacturers stated cut-off for detecting HBV viremia in clinical specimens was 0.7×10^6 copies/ml or 2.5 pg/ml, [Hendricks et al., Am J Clin Pathol 104: 537-46, 1995]. HBV DNA levels can also be quantitated using other commercial kits such as Cobas amplification HBV monitor kit (Roche).

HBV [3] = settings: 30 mg daily dose, over 12 weeks, phase II studies; cited from earlier work

Row | Structure (SMILES) | response to treatment (HBV [1]) | HBV viral load (HBV [2]; 8 Jul. 2003) | HBV viral load (HBV [2]; 14 Jan. 2003) | HBV viral load (HBV [2]; 22 Oct. 2002) | mean decrease in viremia (HBV [3]) [log10]
1 | CC(C)OC(=O)OCOP(=O)(CO[C@H](C)Cn1cnc2c(N)ncnc21)OCOC(=O)OC(C)C [TFV, tenofovir disoproxil fumarate] | responded | – | – | – | –
2 | CC(C)(C)C(=O)OCOP(=O)(COCCn1cnc2c(N)ncnc21)OCOC(=O)C(C)(C)C [ADV, adefovir dipivoxil] | did not respond; also recorded: nonresponder | 7.92E+07 | 1.21E+09 | 8.77E+06 | 4
